In paper PMC12705485, “Aluminum-[^18F]fluoride radiolabeling of triarylphosphines for cell labeling via the perfluoroaryl azide Staudinger ligation” (EJNMMI Radiopharmacy and Chemistry, 2025):
Where two headings read alike, the source gives them in different places.

Tests used:
[1] = Kinetic studies on the PFAA-Staudinger ligation with 1 by 1H NMR spectroscopy; conditions: reaction with 1, DMSO-d6, 2.5 mM, 25 °C
Procedure: The kinetics of the Staudinger ligation between 1 and 2a–2c (Scheme 1) were monitored by ^1H NMR spectroscopy, following spectral changes over time.
The kinetic experiments were carried out following a published protocol (Sundhoro et al. [2017]). […] Kinetic models were evaluated by non-linear fitting corresponding to first- and second-order rate laws in Prism 10 (GraphPad, San Diego, CA, USA) as expected for the Staudinger ligation. Fitting was carried out using kinetic models based on reagent decomposition (A) or product formation (P) as shown in the equations below, depending on signal clarity and the magnitude of ^1H NMR spectral changes over time:where [A] = concentration of reactant A at time t, [A]₀ = initial concentration of reactant A (at t = 0), [P] = concentration of product P at time t, [P]₀ = maximum possible product concentration, k = rate constant and t = time elapsed.

[2] = Stability of 2c under simulated radiolabeling conditions (HPLC); format: physicochemical; conditions: 60 nmol AlCl3, 1:1 0.17 M NaOAc (pH 4.5):EtOH, 30 min
Procedure: The analysis was carried out using a pentafluorophenyl (PFP) column (Kinetex 2.6 µm PFP 100 Å, LC Column 150 × 4.6 mm from Phenomenex, Torrance, CA, USA) and HPLC methods A and B (see SI). The Al^19F-complexes were isolated and analyzed using NMR and/or HRMS. The stability of 2c was also tested in the presence of 60 nmol AlCl3 in 1:1 (v/v) 0.17 M NaOAC (pH 4.5):EtOH, simulating the radiolabeling conditions.

[3] = cited from earlier work
Jurkat cells [4] = test: Flow cytometry of metabolic glycoengineering (phosphine-PEG3-biotin, streptavidin-FITC); format: cell-based, Human; conditions: 50 µM, 72 h, then 1 µM phosphine-PEG3-biotin
Procedure: Jurkat cells (5 × 10^5 cells in 1.5-mL complete medium per well) were seeded in a non-treated flat-bottom polystyrene 6-well plate (Avantor, Radnor, PA, USA) and incubated in triplicates (n = 3) with 50 μM of 1, 50 μM of Ac4ManNAz (Lumiprobe, Westminster, MD, USA) or 0.5% (v/v) DMSO in complete medium for 72 h in a cell incubator set at 37 °C with 5% CO2 and 95% relative humidity. After incubation, the cells for each condition were combined and washed twice with 5 mL of 1 × Dulbecco's phosphate-buffered saline (DPBS). The cell number and viability were determined using EVE™ automatic cell counter (NanoEnTek, Seoul, Korea). 1 × 10^6 cells were resuspended in 500 µL of a freshly prepared 1 × DPBS (pH 7.4) or 1 µM of phosphine-PEG3-biotin (Thermo Fisher Scientific, Waltham, MA, USA) in 1 × DPBS (n = 3), then transferred to 1.5-mL microtubes, and incubated at ambient temperature for 60 min on a rotating platform. […] After the incubation, 400 µL of FACS (fluorescence-activated cell sorting) buffer (2% FBS in DPBS) was added followed by two washings with 500 µL of FACS buffer. […] Data were analyzed using FlowJo software (FlowJo LLC, Ashland, OR, United States).

Jurkat cells [5] = test: Cell viability during flow cytometry workflow (automatic cell counter / 7-AAD); format: cell-based, Human
Procedure: (§1) After incubation, the cells for each condition were combined and washed twice with 5 mL of 1 × Dulbecco's phosphate-buffered saline (DPBS). The cell number and viability were determined using EVE™ automatic cell counter (NanoEnTek, Seoul, Korea). 1 × 10^6 cells were resuspended in 500 µL of a freshly prepared 1 × DPBS (pH 7.4) or 1 µM of phosphine-PEG3-biotin (Thermo Fisher Scientific, Waltham, MA, USA) in 1 × DPBS (n = 3), then transferred to 1.5-mL microtubes, and incubated at ambient temperature for 60 min on a rotating platform. Then, cells are washed twice with 1 × DPBS, resuspended in 100 µL of a freshly prepared solution of 1:200 streptavidin-fluorescein isothiocyanate (FITC) (0.1 μg, Thermo Fisher Scientific, Waltham, MA, USA) in 1 × DPBS, and incubated for 15 min in the dark on ice with mixing once manually in between. After the incubation, 400 µL of FACS (fluorescence-activated cell sorting) buffer (2% FBS in DPBS) was added followed by two washings with 500 µL of FACS buffer. During the washing step, the samples were centrifuged at 4 °C, […] for 5 min, the supernatant was removed, and the cells were resuspended in fresh buffer, followed by centrifugation. Lastly, cells were resuspended in 500 µL of FACS buffer and transferred to FACS tubes equipped with a 35 µm cell strainer cap. Dead and apoptotic cells were stained by adding 5 µL of 7-aminoactinomycin D (7-AAD) staining solution and incubating for 10 min at ambient temperature in the dark, followed by flow cytometry analysis using LSR Fortessa (BD Biosciences, Franklin Lake, NJ, USA). Unstained samples, samples stained only with streptavidin-FITC, and only with 7-AAD were used as controls. Data were analyzed using FlowJo software (FlowJo LLC, Ashland, OR, United States).

[6] = CyQUANT LDH Cytotoxicity Assay; format: cell-based; conditions: human, Jurkat T lymphoblasts (Clone E6-1), read-out: cell viability
Procedure: The in vitro cytotoxicity of 1 was assessed using the CyQUANT™ LDH Cytotoxicity Assay (Invitrogen, Waltham, MA, USA), which quantifies membrane damage via extracellular lactate dehydrogenase (LDH) release. Assay reagents (Lysis Buffer, Reaction Mixture, and Stop Solution) were prepared according to the manufacturer’s protocol. Human Jurkat T lymphoblasts (Clone E6-1, ATCC TIB-152™, Manassas, VA, USA) were suspended in complete medium and mixed (1:1) with 1 in complete medium to obtain final concentrations of 10, 20, 50, 125, and 250 μM containing 0.5% v/v DMSO vehicle. Positive control for cytotoxicity (maximum LDH; cells lysed with 10 × Lysis Buffer at 1:10 v/v, prepared before each time point), negative control for cytotoxicity (spontaneous LDH; 0.5% v/v DMSO in complete medium), and complete-medium and serum-free medium blanks (background) were included. Sample-containing and control cell suspensions were plates at a density of 14,000 cells per well in 280 μL on an opaque-walled, clear-bottom 96-well plate. Plates were incubated at 37 °C, 5% CO2 in a humidified incubator for 24, 48, and 72 h. All conditions were run in quadruplicate (n = 4). […] Absorbance was measured at 490 and 680 nm on a Synergy H1 multimode microplate reader (BioTek, Winooski, VT, USA). LDH signal was calculated as Abs490 – Abs680 (background-corrected).
% Cytotoxicity was determined as:

[7] = Cell viability during flow cytometry workflow (automatic cell counter / 7-AAD); format: cell-based, Human; conditions: human, Jurkat cells, 50 µM, 72 h
Procedure: as §1

With `O=C(O)CN(CC(=O)O)CC(CCNC(=O)Cc1ccc(CN(CC(=O)O)[C@@H]2CCCC[C@H]2N(CC(=O)O)CC(=O)O)cc1)OC(=O)c1ccccc1P(c1ccccc1)c1ccccc1` (stereo partly drawn) [2a] the “second-order rate constant of PFAA-Staudinger ligation” value [1] was 4.246 × 10^–4 M⁻1 s⁻1.
For `O=C(O)CN(CC(=O)O)[C@@H]1CCCC[C@H]1N(CC(=O)O)Cc1ccc(CC(=O)NCCNC(=O)c2ccccc2P(c2ccccc2)c2ccccc2)cc1` [2b], the “first-order rate constant of PFAA-Staudinger ligation” value [1] was 5.434 × 10^–3 s⁻1.
In the case of `O=C(O)CN(CC(=O)O)C1CCCCC1N(CC(=O)O)Cc1ccc(CC(=O)NC2CCC(CNC(=O)c3ccccc3P(c3ccccc3)c3ccccc3)CC2)cc1` (stereo not drawn) [2c], the “second-order rate constant of PFAA-Staudinger ligation” value [1] is reported as 4.071 × 10^–4 M⁻1 s⁻1 and the “stability under radiolabeling conditions without radioactivity (HPLC)” value [2] is reported as “negligible change”.
In the case of `SCP(c1ccccc1)c1ccccc1` [(diphenylphosphino)methanethiol], the “second-order rate constant, traceless Staudinger ligation” value ([3]; DMF:D2O (6:1) ref Soellner et al. [2006]) is given as 7.7 × 10^–3 M^−1 s^−1.
With `CC(=O)OC[C@H]1OC(OC(C)=O)[C@@H](NC(=O)CN=[N+]=[N-])[C@@H](OC(C)=O)[C@@H]1OC(C)=O` (stereo partly drawn) [Ac4ManNAz, Tetra-acetylated N-azidoacetylmannosamine, reference compound] the “fluorescent labeling with streptavidin-FITC” value (Jurkat cells [4]) was “observed”, the “cell viability after 72 h of incubation” value (Jurkat cells [5]; 50 µM, 72 h) was 96% and the “cell viability at the time of analysis” value (Jurkat cells [5]; 50 µM, 72 h, after ligation and staining) was 79–82%.
In the case of `[N-]=[N+]=NCc1ccccc1` [benzyl azide], the “second-order rate constant, non-traceless Staudinger ligation” value ([3]; ACN:H2O (19:1) ref Lin et al. [2005]) is given as 2.5 × 10^–3 M^−1 s^−1.
With `CC(=O)OCC1OC(OC(C)=O)C(NC(=O)c2c(F)c(F)c(N=[N+]=[N-])c(F)c2F)C(OC(C)=O)C1OC(C)=O` (stereo not drawn) [compound 1, tetra-acetylated PFAA-derivatized mannosamine] the viability ([6]; concentrations up to 50 μM, 24, 48 and 72 h) was greater than 80%, the viability at 125 µM ([6]; ≥ 125 μM, after 24 and 72 h of incubation) was less than 80% and the “fluorescent labeling with streptavidin-FITC” value (Jurkat cells [4]) was “minimal/no signal”. For the same molecule, the viability at 72 h, 50 µM ([7]; after ligation and staining, read-out: cell viability at the time of analysis) was 77 to 80%, the viability at 72 h, 50 µM ([7]; read-out: cell viability after 72 h of incubation) was 91% and the cell viability (Jurkat cells [5]; 100 µM, 72 h of incubation) was “reduced cell viability”.
